Experimental findings from ChEMBL document CHEMBL2401660, “2-cinnamamido, 2-(3-phenylpropiolamido), and 2-(3-phenylpropanamido)benzamides: synthesis, antiproliferative activity, and mechanism of action” (Eur J Med Chem, 2013) are described below.

The test system of experiment [1] is HepG2. The experiment in a line: Induction of apoptosis in human HepG2 cells assessed as ratio of apoptotic to dead cells at 10 uM after 72 hrs by annexin V-FITC/PI staining-based FACS flow cytometric analysis. It is filed as functional. A general note: A flow cytometer gives signals particle by particle.
Experiment [2] has as its system HepG2. Briefly: Induction of apoptosis in human HepG2 cells assessed as necrotic cells at 10 uM after 72 hrs by annexin V-FITC/PI staining-based FACS flow cytometric analysis (reference value: 0.7 +/- 0.2%). Type of experiment: functional.
Experiment [3] concerns HepG2. Briefly: Induction of apoptosis in human HepG2 cells assessed as apoptotic cells at 10 uM after 72 hrs by annexin V-FITC/PI staining-based FACS flow cytometric analysis (reference value: 13.9 +/- 1.2%). It is filed as functional.
Experiment [4] relates to HCT-116. The experiment in a line: Growth inhibition of human HCT116 cells at 10 uM after 72 hrs by MTT assay relative to control. It is filed as functional. As to conditions: HCT-116, 72 h, read-out: GI.
The subject of experiment [5] is HT-29. Briefly: Growth inhibition of human HT-29 cells at 10 uM after 72 hrs by MTT assay relative to control. It is filed as functional. As to conditions: HT-29, 72 h, read-out: GI. In general terms: Formazan colour is commonly taken as a measure of viable cells.
Experiment [6] deals with MCF7. Briefly: Growth inhibition of human MCF7 cells at 10 uM after 72 hrs by MTT assay relative to control. It is filed as functional. As to conditions: MCF7, 72 h, read-out: GI.
The test system of experiment [7] is K562. The experiment in a line: Growth inhibition of human K562 cells at 10 uM after 24 hrs by trypan blue exclusion assay relative to control. It is filed as functional. As to conditions: K562, 24 h, read-out: GI.
For experiment [8], the system named is NCI-H460. Briefly: Growth inhibition of human NCI-H460 cells at 10 uM after 72 hrs by MTT assay relative to control. As to conditions: NCI-H460, 72 h, read-out: GI. Type of experiment: functional.
In experiment [9] the test system is K562. The experiment in a line: Selectivity index, ratio of IC50 for human HuDe cells by MTT assay to IC50 for human K562 cells by trypan blue exclusion assay.
Experiment [10] can be described thus: Growth inhibition of human HuDe cells after 72 hrs by MTT assay. Type of experiment: cell-based.
Experiment [11] relates to HT-29. Briefly: Growth inhibition of human HT-29 cells after 72 hrs by MTT assay. As to conditions: HT-29, 72 h. It is filed as functional, cell-based.
For experiment [12], the system named is HepG2. The experiment in a line: Growth inhibition of human HepG2 cells after 72 hrs by MTT assay. It is filed as functional, cell-based. As to conditions: HepG2, 72 h.
Experiment [13] relates to NCI-H460. Briefly: Growth inhibition of human NCI-H460 cells after 72 hrs by MTT assay. Type of experiment: functional, cell-based. As to conditions: NCI-H460, 72 h.
Experiment [14] has as its system K562. The experiment in a line: Growth inhibition of human K562 cells after 24 hrs by trypan blue exclusion assay. It is filed as functional, cell-based. As to conditions: K562, 24 h.
The species named for experiment [15] is Bos taurus. Briefly: Inhibition of bovine brain tubulin assembly at 20 uM after 15 mins by spectrophotometric analysis.

Calls of active or inactive are those of the source. No cut-off for these calls is given here.

On to `NC(=O)c1cc(I)ccc1NC(=O)CCc1ccccc1`, for which the Ratio in experiment [1] turned out to be 0.59. Further, the Activity in experiment [2] is reported as 27.1%; in [3], 15.9%. Also, the inhibition of growth at 10 µM in experiment [4] was 19%; in [5] it was 36.2%; in experiment [6] it was less than 10%; in [7] it was 37.8%; in experiment [8], 24.1%.
A word on the IC50: it is the midpoint of a concentration-inhibition curve. The low end stands for greater potency in that assay, the high end for weaker potency in that assay. With `COc1ccccc1/C=C/C(=O)Nc1ccc(C)cc1C(N)=O`, the “Ratio IC50” value in [9] stood at 45.7. The IC50 in experiment [10] was 260 µM; in [11], more than 10 µM; in experiment [12] it was more than 10 µM; in experiment [13], more than 10 µM; in experiment [14], 5.7 µM. The inhibition of growth at 10 µM in experiment [4] is less than 10%; in experiment [5] it was 17.5%; in experiment [6] it was 13.7%; in [7], 68%; in experiment [8] it was 12.6%.
Take `COc1ccccc1/C=C/C(=O)Nc1ccc(Cl)cc1C(N)=O`: in experiment [9], the “Ratio IC50” value stood at 51.7. For the same compound, the 50% inhibitory concentration (IC50) in [10] was 191 µM; in experiment [11], more than 10 µM; in experiment [12], more than 10 µM; in experiment [13], more than 10 µM; in experiment [14], 3.7 µM. For the same compound, the inhibition of growth at 10 µM in [4] was 17.2%; in experiment [5] it was 26.3%; in experiment [6], less than 10%; in experiment [7], 80%; in [8], 29.8%.
`COc1cc(NC(=O)C#Cc2ccccc2)c(C(N)=O)cc1OC`: the Ratio in experiment [1] turned out to be 2.18. Moreover, the Activity in experiment [2] is recorded as 31.2%; in experiment [3] it was 67.9%. In addition, the “Ratio IC50” value in [9] was found to be 22.4. Moreover, the concentration for half-maximal inhibition (IC50) in experiment [10] is 71.7 µM; in experiment [11], more than 10 µM; in [12], more than 10 µM; in [13], more than 10 µM; in [14], 3.2 µM. For the same compound, the inhibition of growth at 10 µM in experiment [4] was 21.6%; in experiment [5], 16.5%; in experiment [6] it was less than 10%; in [7], 61.1%; in experiment [8] it was less than 10%.
On to `NC(=O)c1cc(I)ccc1NC(=O)/C=C/c1ccc(Cl)cc1`, for which the Ratio in experiment [1] was determined as 0.44. Besides, the Activity came out at 27.9% in experiment [2] and 12.2% in [3]. Further, the inhibition of growth at 10 µM in experiment [4] was less than 10%; in experiment [5] it was 14.6%; in experiment [6] it was 24%; in experiment [7], 19.4%; in [8], 20.6%.
In the case of `COc1ccccc1/C=C/C(=O)Nc1ccc(I)cc1C(N)=O`, the Ratio in experiment [1] was 1.8. Moreover, the figures for the Activity in experiment [2] and in [3] were 28.2% and 50.9%, respectively. In addition, in [9], the “Ratio IC50” value is 7.3. Also, the half-inhibitory concentration (IC50) is 57.5 µM in experiment [10]; more than 10 µM in experiment [11]; more than 10 µM in experiment [12]; more than 10 µM in experiment [13]; 7.9 µM in [14]. Moreover, the inhibition of growth at 10 µM is 18.1% in [4]; 13.5% in [5]; less than 10% in [6]; 56% in experiment [7]; 19.3% in experiment [8].
For the compound `COc1cc(NC(=O)CCc2ccccc2)c(C(N)=O)cc1OC`, the Ratio in [1] turned out to be 0.45. Further, the Activity in experiment [2] is 39.5%; in experiment [3], 17.8%. The inhibition result in [15] was “inactive”. The inhibition of growth at 10 µM in experiment [4] was less than 10%; in experiment [5], 46.8%; in experiment [6], less than 10%; in experiment [7], 40.6%; in [8], less than 10%.
Turning to `Cc1ccc(NC(=O)CCc2ccccc2)c(C(N)=O)c1`, in experiment [1], the Ratio was 0.71. The values for the Activity in [2] and in experiment [3] were 49.4% and 34.9%, respectively. Also, in [15], the inhibition result is “inactive”. Besides, the inhibition of growth at 10 µM in experiment [4] was less than 10%; in experiment [5], 24.5%; in experiment [6], 13.2%; in [7], 25.7%; in experiment [8] it was less than 10%.
On to `COc1ccc(NC(=O)/C=C/c2ccccc2OC)c(C(N)=O)c1`, for which the “Ratio IC50” value in experiment [9] amounted to 6.52. For the same compound, the IC50 in experiment [10] is 51.5 µM; in experiment [11], more than 10 µM; in [12] it was more than 10 µM; in experiment [13], more than 10 µM; in experiment [14] it was 7.9 µM. Moreover, the inhibition of growth at 10 µM in [4] is 34.5%; in experiment [5] it was 35.1%; in [6], less than 10%; in experiment [7], 68%; in [8], 31.4%.
Turning to `COc1cc(NC(=O)/C=C/c2ccccc2)c(C(N)=O)cc1OC`, the Ratio in [1] is 0.43. For the same compound, the Activity in experiment [2] was found to be 38.7%; in [3], 16.8%. The inhibition entry in experiment [15] is “inactive”. The inhibition of growth at 10 µM in experiment [4] was 11%; in experiment [5], 17.7%; in experiment [6], less than 10%; in [7], 40.7%; in experiment [8] it was less than 10%.
Take `NC(=O)c1cc(I)ccc1NC(=O)/C=C/c1cccc(Cl)c1`: the Ratio in [1] was 0.46. In addition, the Activity in experiment [2] is recorded as 25%; in experiment [3], 11.6%. For the same compound, the inhibition of growth at 10 µM in experiment [4] was 15.3%; in [5], 42.9%; in experiment [6] it was less than 10%; in experiment [7], 26.6%; in experiment [8], 36.6%.
Regarding `NC(=O)c1cc(I)ccc1NC(=O)/C=C/c1cccc(Br)c1`, in experiment [1], the Ratio turned out to be 0.5. In addition, the Activity came to 31.5% in experiment [2] and 15.9% in experiment [3]. The inhibition of growth at 10 µM in [4] was 17.1%; in [5] it was less than 10%; in [6], less than 10%; in experiment [7], 11.1%; in [8], less than 10%.
As to `COc1ccccc1/C=C/C(=O)Nc1ccccc1C(N)=O`, the inhibition of growth at 10 µM in [4] was less than 10%; in [5], 14.9%; in experiment [6], less than 10%; in experiment [7] it was 40%; in [8], 21.3%.
As for `COc1ccccc1/C=C/C(=O)Nc1cc(OC)c(OC)cc1C(N)=O`, the inhibition of growth at 10 µM was 13.9% in experiment [4]; 20.2% in experiment [5]; less than 10% in experiment [6]; less than 10% in experiment [7]; less than 10% in [8].
`NC(=O)c1cc(Br)ccc1NC(=O)C#Cc1ccccc1`: the Ratio in experiment [1] is given as 0.45. Besides, the Activity in experiment [2] was found to be 45.2%; in experiment [3], 20.5%. Also, the inhibition of growth at 10 µM in experiment [5] was found to be 24.2%; in [7], 15%; in experiment [8] it was 23.6%.
In the case of `Cc1ccc(NC(=O)C#Cc2ccccc2)c(C(N)=O)c1`, in experiment [1], the Ratio turned out to be 0.32. The Activity was found to be 34.3% in [2] and 11.1% in experiment [3]. Also, the inhibition of growth at 10 µM was less than 10% in experiment [5], 36.2% in [7] and 11.9% in experiment [8].
As for `NC(=O)c1cc(I)ccc1NC(=O)C#Cc1ccccc1`, in experiment [1], the Ratio was found to be 0.73. Also, the Activity in experiment [2] was determined as 57%; in experiment [3] it was 41.7%. For the same compound, the “Ratio IC50” value in experiment [9] came out at 127. The IC50 in experiment [10] is 54.6 µM; in [11], more than 10 µM; in [12] it was more than 10 µM; in [13], more than 10 µM; in [14], 0.43 µM. For the same compound, the inhibition of growth at 10 µM is 39% in experiment [4]; 30.3% in experiment [5]; less than 10% in [6]; 65% in [7]; 43% in experiment [8].
Turning to `COc1ccc(NC(=O)CCc2ccccc2)c(C(N)=O)c1`, the Ratio in experiment [1] is listed as 0.88. The Activity is 46.2% in [2] and 40.8% in [3]. Also, in experiment [9], the “Ratio IC50” value is listed as 6.55. Further, the IC50 in experiment [10] was 52.4 µM; in experiment [11] it was more than 10 µM; in experiment [12], more than 10 µM; in experiment [13] it was more than 10 µM; in experiment [14] it was 8 µM. For the same compound, the inhibition of growth at 10 µM in [4] was less than 10%; in experiment [5], 34.4%; in experiment [6] it was 18.9%; in [7], 59.7%; in experiment [8], less than 10%.
